Our source for the IC50 values is US9247759B2, “Identification of human T2R receptors that respond to bitter compounds that elicit the bitter taste in compositions, and the use thereof in assays to identify compounds that inhibit (block) bitter taste in compositions and use thereof” (SENOMYX, INC., priority 2007, dated 2016).

Usually IC50 stands for the concentration at which inhibition is half-maximal.

The assay has as its target hT2R8 (Homo sapiens (Human), UniProt Q9NYW2). The assay can be described thus: hT2R8 antagonist high-throughput FLIPR assay, stable cell line with G16g44, agonist andrographolide. It is filed as cell-based. A digest of the protocol:
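HEK293 cells stably co-expressing hT2R8 and chimeric G16g44, read on FLIPR. Test compounds added together with andrographolide (200 μM), which drives the receptor to 70–80% of maximal activity; antagonism seen as reduced agonist response.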

[1] abbreviates: table after Example 10-97, read-out: hT2R8 IC50.
[2] abbreviates: unit uM, read-out: IC50 on hT2R08 bitter receptor.
Where [3] appears, read: read-out: IC50 on hT2R8 bitter receptor.
The mark [4] stands for this setting: table after Example 12-37, read-out: hT2R8 IC50.

Like-named read-outs stand apart in the source and are kept apart here.

Sequence of hT2R8 (Q9NYW2 whole entry): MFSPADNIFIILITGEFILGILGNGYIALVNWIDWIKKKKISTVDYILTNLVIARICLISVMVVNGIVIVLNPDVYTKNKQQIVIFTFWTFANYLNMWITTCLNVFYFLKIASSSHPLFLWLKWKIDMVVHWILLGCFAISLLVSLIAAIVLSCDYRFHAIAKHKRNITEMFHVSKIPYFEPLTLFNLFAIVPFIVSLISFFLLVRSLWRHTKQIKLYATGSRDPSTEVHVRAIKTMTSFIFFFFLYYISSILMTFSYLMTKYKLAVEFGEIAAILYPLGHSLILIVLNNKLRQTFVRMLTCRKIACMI

Regarding `Cc1noc(C)c1Cn1cc(N2C(=O)CN(Cc3ccccc3F)C2=O)cn1` [Example 10-21, 3-(1-((3,5-dimethylisoxazol-4-yl)methyl)-1H-pyrazol-4-yl)-1-(2-fluorobenzyl)imidazolidine-2,4-dione], the IC50 is 0.09 µM under setting [1] and 0.08 µM under setting [2]. Regarding `COc1ccc(CC(=O)Nc2cnn(Cc3c(C)noc3C)c2)cc1` [Example 4-33, N-(1-((3,5-dimethylisoxazol-4-yl)methyl)-1H-pyrazol-4-yl)-2-(4-methoxyphenyl)acetamide], the IC50 (Table A, read-out: hT2R8 IC50) is 0.99 µM. `Cc1noc(C)c1Cn1cc(NC(=O)c2cc3c(cc2Cl)OCCO3)cn1` [Example 4-90, 7-chloro-N-(1-((3,5-dimethylisoxazol-4-yl)methyl)-1H-pyrazol-4-yl)-2,3-dihydrobenzo[b][1,4]dioxine-6-carboxamide]: the IC50 (Table A, read-out: hT2R8 IC50) worked out at 0.1 µM. `Cc1noc(C)c1Cn1cc(N2C(=O)N/C(=C\c3ccccc3)C2=O)cn1` [Example 10-63, (Z)-5-benzylidene-3-(1-((3,5-dimethylisoxazol-4-yl)methyl)-1H-pyrazol-4-yl)imidazolidine-2,4-dione]: the IC50 under setting [3] came out at 0.34 µM. On to `Cc1noc(C)c1Cn1cc(N2C(=O)CN(Cc3cccc(F)c3)C2=O)cn1` [Example 10-27, 3-(1-((3,5-dimethylisoxazol-4-yl)methyl)-1H-pyrazol-4-yl)-1-(3-fluorobenzyl)imidazolidine-2,4-dione], for which the IC50 is 0.058 µM under setting [1] and 0.06 µM under setting [2]. Take `COc1cccc(C(=O)Nc2cnn(Cc3c(C)noc3C)c2)c1O` [Example 4-71, N-(1-((3,5-dimethylisoxazol-4-yl)methyl)-1H-pyrazol-4-yl)-2-hydroxy-3-methoxybenzamide]: where the note is “Table A, read-out: hT2R8 IC50”, the IC50 stood at 2.9 µM. The same measure, in the same setting: with `COc1ccc(C(=O)Nc2cnn(Cc3c(C)noc3C)c2)cc1` [Example 4-17, N-(1-((3,5-dimethylisoxazol-4-yl)methyl)-1H-pyrazol-4-yl)-4-methoxybenzamide] the figure was 0.26 µM. For the molecule `CSc1ccccc1CN1CC(=O)N(c2cnn(Cc3c(C)noc3C)c2)C1=O` [Example 10-15, 3-(1-((3,5-dimethylisoxazol-4-yl)methyl)-1H-pyrazol-4-yl)-1-(2-(methylthio)benzyl)imidazolidine-2,4-dione], the IC50 turned out to be 0.016 µM under setting [1] and 0.03 µM under setting [2]. With `Cc1noc(C)c1Cn1cc(C(=O)NCc2cccs2)sc1=O` [Example 4-116, 3-((3,5-dimethylisoxazol-4-yl)methyl)-2-oxo-N-(thiophen-2-ylmethyl)-2,3-dihydrothiazole-5-carboxamide], the IC50 (Table A, read-out: hT2R8 IC50) came to 2.28 µM.

As for `Cc1noc(C)c1Cn1cc(N2C(=O)NC(CC(=O)NCc3ccccc3)C2=O)cn1` (stereo not drawn) [Example 10-49, N-benzyl-2-(1-(1-((3,5-dimethylisoxazol-4-yl)methyl)-1H-pyrazol-4-yl)-2,5-dioxoimidazolidin-4-yl)acetamide], the IC50 by setting is: under setting [3], 1.3 µM; under setting [1], 1.33 µM.

Turning to `Cc1noc(C)c1Cn1cc(N2Cc3ccccc3C2=O)cn1` [Example 9-3, 2-(1-((3,5-dimethylisoxazol-4-yl)methyl)-1H-pyrazol-4-yl) isoindolin-1-One], the IC50 under setting [3] is 11 µM. For `Cc1noc(C)c1Cn1cc(-n2c(=O)[nH]c3ccccc3c2=O)cn1` [Example 9-4, 3-(1-((3,5-dimethylisoxazol-4-yl)methyl)-1H-pyrazol-4-yl)quinazoline-2,4(1H,3H)-dione], the IC50 under setting [3] amounted to 1.5 µM. Regarding `Cc1noc(C)c1Cn1cc(NC(=O)[C@H](C)c2ccccc2)cn1` [Example 4-42, (R)-N-(1-((3,5-dimethylisoxazol-4-yl)methyl)-1H-pyrazol-4-yl)-2-phenylpropanamide], the IC50 (Table A, read-out: hT2R8 IC50) is 3.72 µM. As for `Cc1noc(C)c1Cn1cc(N2C(=O)[C@H](C(C)C)N(Cc3cccc(O)c3)C2=O)cn1` [Example 12-8, (S)-3-(1-((3,5-dimethylisoxazol-4-yl)methyl)-1H-pyrazol-4-yl)-1-(3-hydroxybenzyl)-5-isopropylimidazolidine-2,4-dione], the IC50 under setting [3] stood at 0.65 µM. Take `Cc1noc(C)c1Cn1cc(N2C(=O)NC(CC3CCCC3)C2=O)cn1` (stereo not drawn) [Example 10-58, 5-(cyclopentylmethyl)-3-(1-((3,5-dimethylisoxazol-4-yl)methyl)-1H-pyrazol-4-yl)imidazolidine-2,4-dione]: the IC50 reads like this: under setting [3], 0.31 µM; under setting [1], 0.316 µM. With `Cc1noc(C)c1Cn1cc(N2C(=O)N(Cc3cccc(O)c3)C3(CC3)C2=O)cn1` [Example 12-15, 6-(1-((3,5-dimethylisoxazol-4-yl)methyl)-1H-pyrazol-4-yl)-4-(3-hydroxybenzyl)-4,6-diazaspiro[2.4]heptane-5,7-dione], the IC50 under setting [3] came to 0.02 µM. As to `CNc1cnn(Cc2c(C)noc2C)c1` [Example 4-63, 1-((3,5-dimethylisoxazol-4-yl)methyl)-N-methyl-1H-pyrazol-4-amine], for the setting “Table A, read-out: hT2R8 IC50”, the IC50 was found to be 8.76 µM.

Regarding `Cc1noc(C)c1Cn1cc(N2C(=O)[C@H](CO)N(Cc3cccc(O)c3)C2=O)cn1` [Example 12-9, (S)-3-(1-((3,5-dimethylisoxazol-4-yl)methyl)-1H-pyrazol-4-yl)-1-(3-hydroxybenzyl)-5-(hydroxymethyl)imidazolidine-2,4-dione], the IC50 under setting [3] amounted to 0.04 µM. `CCC(C(=O)Nc1cnn(Cc2c(C)noc2C)c1)c1ccccc1` (stereo not drawn) [Example 4-37, N-(1-((3,5-dimethylisoxazol-4-yl)methyl)-1H-pyrazol-4-yl)-2-phenylbutanamide]: the 50% inhibitory concentration (IC50) (Table A, read-out: hT2R8 IC50) was 0.5 µM. `Cc1noc(C)c1Cn1cc(N2C(=O)CN(C)C2=O)cn1` [Example 10-51, 3-(1-((3,5-dimethylisoxazol-4-yl)methyl)-1H-pyrazol-4-yl)-1-methylimidazolidine-2,4-dione]: the 50% inhibitory concentration (IC50) by setting is: under setting [3], 0.58 µM; under setting [1], 0.966 µM. `COc1ccc(OC)c(NC(=S)Nc2cnn(Cc3c(C)noc3C)c2)c1` [Example 4-113, 1-(2,5-dimethoxyphenyl)-3-(1-((3,5-dimethylisoxazol-4-yl)methyl)-1H-pyrazol-4-yl)thiourea]: the concentration for half-maximal inhibition (IC50) (Table A, read-out: hT2R8 IC50) was found to be 5.24 µM. Consider `Cc1noc(C)c1Cn1cc(N2C(=O)NC(CC(=O)Nc3ccccc3)C2=O)cn1` (stereo not drawn) [Example 10-48, 2-(1-(1-((3,5-dimethylisoxazol-4-yl)methyl)-1H-pyrazol-4-yl)-2,5-dioxoimidazolidin-4-yl)-N-phenylacetamide], for which the IC50 was 0.75 µM under setting [3] and 0.747 µM under setting [1].

Regarding `Cc1noc(C)c1Cn1cc(NC(=O)c2ccc3c(c2)OCO3)cn1` [Example 4-8, N-(1-((3,5-dimethylisoxazol-4-yl)methyl)-1H-pyrazol-4-yl)benzo[d][1,3]dioxole-5-carboxamide], the IC50 under setting [3] is 0.2 µM. Still for that read-out and setting: with `Cc1noc(C)c1Cn1cc(NC(=O)CC2CCCCC2)cn1` [Example 4-14, 2-cyclohexyl-N-(1-((3,5-dimethylisoxazol-4-yl)methyl)-1H-pyrazol-4-yl)acetamide] the figure was 0.73 µM. Regarding `COC(=O)c1cccc(CN2CC(=O)N(c3cnn(Cc4c(C)noc4C)c3)C2=O)c1` [Example 10-7, methyl 3-((3-(1-((3,5-dimethylisoxazol-4-yl)methyl)-1H-pyrazol-4-yl)-2,4-dioxoimidazolidin-1-yl)methyl)benzoate], the IC50 is, setting by setting: under setting [3], 0.09 µM; under setting [1], 0.102 µM.

On to `Cc1noc(C)c1Cn1cc(N2C(=O)N(C)C(C)(C)C2=O)cn1` [Example 10-52, 3-(1-((3,5-dimethylisoxazol-4-yl)methyl)-1H-pyrazol-4-yl)-1,5,5-trimethylimidazolidine-2,4-dione], for which the IC50 was 0.8 µM under setting [3] and 0.81 µM under setting [1]. For `Cc1noc(C)c1Cn1cc(N2CCN(Cc3ccccc3)C2=O)cn1` [Example 10-88, 1-benzyl-3-(1-((3,5-dimethylisoxazol-4-yl)methyl)-1H-pyrazol-4-yl)imidazolidin-2-One], in that order: 0.71 µM and 1.25 µM.

For `Cc1noc(C)c1Cn1cc(NC(=O)c2ccc(F)cc2)cn1` [Example 4-23, N-(1-((3,5-dimethylisoxazol-4-yl)methyl)-1H-pyrazol-4-yl)-4-fluorobenzamide], the IC50 (Table A, read-out: hT2R8 IC50) was 1.56 µM.

On to `Cc1noc(C)c1Cn1cc(NC(=O)c2cccc(S(C)(=O)=O)c2)cn1` [Example 4-26, N-(1-((3,5-dimethylisoxazol-4-yl)methyl)-1H-pyrazol-4-yl)-3-(methylsulfonyl)benzamide], for which, where the note is “Table A, read-out: hT2R8 IC50”, the IC50 was 0.72 µM. With `Cc1noc(C)c1Cn1cc(N2C(=O)N(Cc3cccc(O)n3)C(C)(C)C2=O)cn1` [Example 12-72, 3-(1-((3,5-dimethylisoxazol-4-yl)methyl)-1H-pyrazol-4-yl)-1-((6-hydroxypyridin-2-yl)methyl)-5,5-dimethylimidazolidine-2,4-dione], the IC50 under setting [4] came to 0.44 µM.

Take `COCc1cccc(CN2C(=O)N(c3cnn(Cc4c(C)noc4C)c3)C(=O)C2(C)C)c1` [Example 12-35, 3-(1-((3,5-dimethylisoxazol-4-yl)methyl)-1H-pyrazol-4-yl)-1-(3-(methoxymethyl)benzyl)-5,5-dimethylimidazolidine-2,4-dione]: the IC50 under setting [3] came to 0.13 µM. With `Cc1ccc(CN2C(=O)N(c3cnn(Cc4c(C)noc4C)c3)C(=O)C2(C)C)cc1` [Example 12-81, 3-(1-((3,5-dimethylisoxazol-4-yl)methyl)-1H-pyrazol-4-yl)-5,5-dimethyl-1-(4-methylbenzyl)imidazolidine-2,4-dione], the IC50 under setting [4] came to 0.74 µM. For the molecule `Cc1noc(C)c1Cn1cc(N2C(=O)CN(CC3CCCCC3)C2=O)cn1` [Example 10-74, 1-(cyclohexylmethyl)-3-(1-((3,5-dimethylisoxazol-4-yl)methyl)-1H-pyrazol-4-yl)imidazolidine-2,4-dione], the IC50 under setting [3] was 0.28 µM and the IC50 under setting [1] is 0.276 µM. As for `Cc1noc(C)c1Cn1cc(NC(=S)Nc2ccccc2)cn1` [Example 4-112, 1-(1-((3,5-dimethylisoxazol-4-yl)methyl)-1H-pyrazol-4-yl)-3-phenylthiourea], the IC50 (Table A, read-out: hT2R8 IC50) is 2.49 µM.
